By EC50 is commonly meant the concentration that produces a half-maximal response.

Here are results for one molecule from PubChem BioAssay AID1794812.

Results filed as inconclusive are left out.

The target of the assay is Excitatory amino acid transporter 3 (Homo sapiens) (UniProt P43005). In words: EAAT3 transporter activation by amino acid substrates – membrane potential dye, HEK-293 overexpressing cells, dose response (AID 1794812). As to conditions: HEK-293 SLC1A1 OE, FLIPR membrane potential dye.
Sequence of Excitatory amino acid transporter 3 (Homo sapiens) (P43005 whole entry, looked up): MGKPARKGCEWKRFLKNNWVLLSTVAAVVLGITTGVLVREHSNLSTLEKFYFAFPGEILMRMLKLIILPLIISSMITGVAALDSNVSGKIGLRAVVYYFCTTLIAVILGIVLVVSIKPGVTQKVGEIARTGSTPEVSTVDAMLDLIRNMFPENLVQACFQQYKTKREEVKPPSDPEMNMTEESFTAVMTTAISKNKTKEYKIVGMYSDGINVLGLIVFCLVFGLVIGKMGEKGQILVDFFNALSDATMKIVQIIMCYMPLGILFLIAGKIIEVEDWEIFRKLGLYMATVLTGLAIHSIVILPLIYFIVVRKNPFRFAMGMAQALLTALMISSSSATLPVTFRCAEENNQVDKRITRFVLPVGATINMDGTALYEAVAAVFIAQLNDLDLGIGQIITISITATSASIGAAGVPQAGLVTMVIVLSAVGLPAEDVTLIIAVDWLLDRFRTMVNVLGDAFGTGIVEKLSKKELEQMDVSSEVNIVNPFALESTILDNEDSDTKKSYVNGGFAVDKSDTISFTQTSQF

On to `N[C@@H](CS)C(=O)O`, for which the EC50 was 161 µM.
